According to patent publication US7470669B2, “Isolated polypeptide comprising a leptin fragment” (Serono Genetics Institute, S.A., priority 1999, dated 2008):
Marks after values point to notes of the source that are not given here.

Assays:
ob/ob mice = test: Postprandial plasma TG response after high-fat test meal in ob/ob mice; assay type: in vivo, mouse; settings: for postprandial lipemic response: single subcutaneous injection of 50 ng
Experimental: (§1) FIGS. 11A and 11B show the effect of mouse leptin (FIG. 11A) or leptin peptide (FIG. 11B) on postprandial plasma TG response in ob/ob mice. […] Postprandial triglyceridemia was measured as described previously. Each point represents the mean±SEM (A: saline, n=8, leptin, n=7; leptin peptide: saline, n=8, leptin, n=8). […] Primary cultures of rat hepatocytes were incubated 30 min at 37° C. with increasing concentrations of mouse leptin peptide. Oleate (0.5 mM) and ^125I-LDL (20 μg/mL) were added and the cells were incubated 2 h at 37° C. After washing, the amount of 125I-LDL bound to the cell surface was measured as described in the Examples section herein.
Mice that were fasted for 2-3 hours were gavage-fed 300 μL of a test meal consisting of 60% fat (37% saturated, 27% mono-, and 36% polyunsaturated fatty acids), 20% protein and 20% carbohydrate, and providing 56 kcal of energy/kg (1.5 g butter, 1.5 g sunflower oil, 2.5 g nonfat dry milk, 2.5 g sucrose and 3 ml water). Immediately after the meal, the animals were injected intravenously (db/db) or intraperitoneally (db^Pas/db^Pas) with either 200 μL physiological saline or 200 μL of the same solution containing recombinant mouse leptin. At selected time intervals, 20 μL of blood were collected from the orbital (db^Pas/db^Pas) or tail (db/db) vein into ice-cold microfuge tubes containing 4 mmol/L EDTA. Plasma was obtained by centrifugation at 2500 rpm for 20 min at 4° C., and was frozen as aliquots at −80° C. before analysis. TG concentrations were determined using a commercially available enzymatic kit with controls included in each assay (Precinorm L, Roche-Boehringer Mannheim; Lyotrol N, BioMérieux).
The inhibition of the intestinal absorption of dietary lipids by leptin was also investigated. Overnight-fasted ob/ob mice were gavage-fed a high fat test meal. […] Blood samples were taken at 2 and 3 h after the test meal, and plasma TG concentrations were measured (see Table, below). […]

LSR = LSR activity (oleate-induced 125I-LDL binding, uptake, degradation) in primary cultures of rat hepatocytes; assay type: cell-based; settings: for oleate-induced LDL degradation / oleate-induced LDL binding: primary rat hepatocytes; for oleate-induced LDL degradation: 22-mer peptides; for oleate-induced LDL binding: peptide concentrations <50 μg/mL
Experimental: FIGS. 6A, 6B, and 6C show the effect of leptin on ^125I-LDL and ^125I-chylomicron binding to LSR in primary cultures of rat hepatocytes. For FIG. 6A, primary cultures of rat hepatocytes (48 hours after plating) were incubated at 37° C. for 30 min in the absence (□) or presence (▪) of 50 ng/mL leptin in Buffer A, followed by a 20 min incubation at 37° C. with 0.5 mM oleate. The cells were then washed with ice-cold PBS, precooled for 10 min, and then incubated for 1 h at 4° C. with increasing concentrations of ^125I-LDL in Buffer A. Cells were washed, were lysed in 0.1 N NaOH and were counted for radioactivity. Results are shown as the mean of duplicate determinations. For FIG. 6B, primary cultures of rat hepatocytes were incubated at 37° C. for 30 min with or without 20 ng/mL leptin followed by incubation at 37° C. for 4 h with 6 μg protein/mL ^125I-chylomicrons in the absence or presence of 0.5 mM oleate in Buffer A. The cells were then washed and the ^125I-chylomicrons bound to the cell surface were released into the media by incubation with 10 mM suramin. The media was recovered and the radioactivity was measured. Results are shown as the mean±SD of six determinations. Fir FIG. 6C, after incubation at 37° C. for 30 min with 50 ng/mL leptin, the cells were incubated at room temperature for 30 min with 200 μg IgG/mL antibodies directed against rat LSR protein or irrelevant IgG. The amount of ^125I-chylomicrons bound was determined, and results are shown as means±SD of triplicate (irrelevant) or quadruplicate (anti-LSR) determinations.
FIGS. 7A and 7B show a comparison of the effect of human and mouse leptin on LSR activity in rat hepatocytes and on postprandial increase in plasma TG in db^Pas/db^Pas mice. For FIG. 7A, primary cultures of rat hepatocytes were incubated 30 min at 37° C. without (open bar) or with 10 ng/mL recombinant human (solid bar) or mouse (hatched bar) leptin in Buffer A. Oleate (0.5 mM) and ^125I-LDL (20 μg/mL) were added and the cells were incubated 2 h at 37° C. The media were removed and were analyzed for TCA-soluble degradation products. The mean of duplicate determinations is shown. For FIG. 7B, db^Pas/db^Pas mice were given a test meal as previously described, followed immediately by injection i.p. of saline (open bar, n=4), human leptin (1 μg/animal; solid bar, n=3) or mouse leptin (0.25 μg/animal; hatched bar; n=3). The data represent the difference in TG concentrations measured at t=0 and the average of the concentrations at 3 and 4 hours. Results are shown as mean±SEM.
Cells were incubated 30 min at 37° C. with increasing concentrations of mouse (▪) or human (●) leptin peptide. Following this, 0.5 mM oleate and 20 μg/mL ^125I-LDL were added and the cells were further incubated for 2 h at 37° C. The cells were washed, and the amount of oleate-induced ^125I-LDL bound and degraded was measured as described previously (Bihain, B. E., and Yen, F. T. (1992). Free fatty acids activate a high-affinity saturable pathway for degradation of low-density lipoproteins in fibroblasts from a subject homozygous for familial hypercholesterolemia. Biochemistry 31, 4628-4636).
as §1, with “herein. […]” for “herein.”

Substance	Plasma TG 2-3 hours after test meal (ob/ob mice; i.v. 0.5 μg recombinant mouse leptin and/or 2.5 mg lactoferrin, mean ± SD)	postprandial lipemic response (ob/ob mice)	oleate-induced binding of 125I-LDL (LSR; primary cultures of rat hepatocytes (FIG. 11B insert))	oleate-induced LDL degradation (LSR)	oleate-induced LDL binding (LSR)
leptin: plasma protein of 16 kDa produced by adipocytes; recombinant human or mouse leptin, species depends on the experiment	0.79 ± 0.1* mg/mL	decreases the postprandial lipemic response			
CSLPQTSGLQKPESLDGVLEAS (listed as Mus musculus) [mouse peptide, mouse leptin fragment residues 117-138, 22-mer]		reduced the postprandial lipemic response	stimulate	inhibitory effect	increased
CHLPWASGLETLDSLGGVLEAS (listed as Homo sapiens) [human peptide, human leptin fragment residues 117-138, 22-mer]				inhibitory effect	increased
